In the NIST ThermoML archive (doi:10.1016/j.fluid.2015.03.015):
“And” between values parts separate entries of the source, which are not always exact repeats. Equal values may be shown once.

Test: refractive index (other wavelength) (dimensionless); xn = mol fraction of the nth substance listed

CCCCCCCC[n+]1ccn(C)c1.F[B-](F)(F)F [1-methyl-3-octylimidazolium tetrafluoroborate] + CCCCCCCO
Minimum deviation
Details	refractive index
298.87 K, Liquid mixture 1, Wavelength=623.8 nm, x1 = 0.01	1.4213
298.87 K, Liquid mixture 2, Wavelength=623.8 nm, x1 = 0.382	1.4264
299.67 K, Liquid mixture 1, Wavelength=623.8 nm, x1 = 0.011	1.421
299.67 K, Liquid mixture 2, Wavelength=623.8 nm, x1 = 0.371	1.426
300.45 K, Liquid mixture 1, Wavelength=623.8 nm, x1 = 0.011	1.4207
300.45 K, Liquid mixture 2, Wavelength=623.8 nm, x1 = 0.359	1.4256
301.2 K, Liquid mixture 1, Wavelength=623.8 nm, x1 = 0.016	1.4205
301.2 K, Liquid mixture 2, Wavelength=623.8 nm, x1 = 0.347	1.4252
301.93 K, Liquid mixture 1, Wavelength=623.8 nm, x1 = 0.015	1.4202
301.93 K, Liquid mixture 2, Wavelength=623.8 nm, x1 = 0.335	1.4248
302.63 K, Liquid mixture 1, Wavelength=623.8 nm, x1 = 0.019	1.42
302.63 K, Liquid mixture 2, Wavelength=623.8 nm, x1 = 0.33	1.4245
303.31 K, Liquid mixture 1, Wavelength=623.8 nm, x1 = 0.023	1.4198
303.31 K, Liquid mixture 2, Wavelength=623.8 nm, x1 = 0.317	1.4241
303.94 K, Liquid mixture 1, Wavelength=623.8 nm, x1 = 0.025	1.4196
303.94 K, Liquid mixture 2, Wavelength=623.8 nm, x1 = 0.302	1.4237
304.5 K, Liquid mixture 1, Wavelength=623.8 nm, x1 = 0.027	1.4194
304.5 K, Liquid mixture 2, Wavelength=623.8 nm, x1 = 0.294	1.4234
305 K, Liquid mixture 1, Wavelength=623.8 nm, x1 = 0.031	1.4193
305 K, Liquid mixture 2, Wavelength=623.8 nm, x1 = 0.284	1.4231
305.41 K, Liquid mixture 1, Wavelength=623.8 nm, x1 = 0.035	1.4192
305.41 K, Liquid mixture 2, Wavelength=623.8 nm, x1 = 0.272	1.4228
305.78 K, Liquid mixture 1, Wavelength=623.8 nm, x1 = 0.037	1.4191
305.78 K, Liquid mixture 2, Wavelength=623.8 nm, x1 = 0.259	1.4225
306.09 K, Liquid mixture 1, Wavelength=623.8 nm, x1 = 0.038	1.419
306.09 K, Liquid mixture 2, Wavelength=623.8 nm, x1 = 0.253	1.4223
306.34 K, Liquid mixture 1, Wavelength=623.8 nm, x1 = 0.043	1.419
306.34 K, Liquid mixture 2, Wavelength=623.8 nm, x1 = 0.244	1.4221
306.54 K, Liquid mixture 1, Wavelength=623.8 nm, x1 = 0.048	1.419
306.54 K, Liquid mixture 2, Wavelength=623.8 nm, x1 = 0.242	1.422
306.7 K, Liquid mixture 1, Wavelength=623.8 nm, x1 = 0.051	1.419
306.7 K, Liquid mixture 2, Wavelength=623.8 nm, x1 = 0.232	1.4218
306.83 K, Liquid mixture 1, Wavelength=623.8 nm, x1 = 0.06	1.4191
306.83 K, Liquid mixture 2, Wavelength=623.8 nm, x1 = 0.228	1.4217
306.93 K, Liquid mixture 1, Wavelength=623.8 nm, x1 = 0.062	1.4191
306.93 K, Liquid mixture 2, Wavelength=623.8 nm, x1 = 0.224	1.4216
307.02 K, Liquid mixture 1, Wavelength=623.8 nm, x1 = 0.064	1.4191
307.02 K, Liquid mixture 2, Wavelength=623.8 nm, x1 = 0.219	1.4215
307.1 K, Liquid mixture 1, Wavelength=623.8 nm, x1 = 0.071	1.4192
307.1 K, Liquid mixture 2, Wavelength=623.8 nm, x1 = 0.221	1.4215
307.16 K, Liquid mixture 1, Wavelength=623.8 nm, x1 = 0.073	1.4192
307.16 K, Liquid mixture 2, Wavelength=623.8 nm, x1 = 0.215	1.4214
307.21 K, Liquid mixture 1, Wavelength=623.8 nm, x1 = 0.08	1.4193
307.21 K, Liquid mixture 2, Wavelength=623.8 nm, x1 = 0.217	1.4214
307.26 K, Liquid mixture 1, Wavelength=623.8 nm, x1 = 0.081	1.4193
307.26 K, Liquid mixture 2, Wavelength=623.8 nm, x1 = 0.211	1.4213
307.3 K, Liquid mixture 1, Wavelength=623.8 nm, x1 = 0.081	1.4193
307.3 K, Liquid mixture 2, Wavelength=623.8 nm, x1 = 0.204	1.4212
307.33 K, Liquid mixture 1, Wavelength=623.8 nm, x1 = 0.082	1.4193
307.33 K, Liquid mixture 2, Wavelength=623.8 nm, x1 = 0.198	1.4211
307.36 K, Liquid mixture 1, Wavelength=623.8 nm, x1 = 0.089	1.4194
307.36 K, Liquid mixture 2, Wavelength=623.8 nm, x1 = 0.199	1.4211
307.39 K, Liquid mixture 1, Wavelength=623.8 nm, x1 = 0.089	1.4194
307.39 K, Liquid mixture 2, Wavelength=623.8 nm, x1 = 0.193	1.421
307.41 K, Liquid mixture 1, Wavelength=623.8 nm, x1 = 0.09	1.4194
307.41 K, Liquid mixture 2, Wavelength=623.8 nm, x1 = 0.186	1.4209
307.44 K, Liquid mixture 1, Wavelength=623.8 nm, x1 = 0.096	1.4195
307.44 K, Liquid mixture 2, Wavelength=623.8 nm, x1 = 0.187	1.4209
307.45 K, Liquid mixture 1, Wavelength=623.8 nm, x1 = 0.097	1.4195
307.45 K, Liquid mixture 2, Wavelength=623.8 nm, x1 = 0.18	1.4208
307.47 K, Liquid mixture 1, Wavelength=623.8 nm, x1 = 0.097	1.4195
307.47 K, Liquid mixture 2, Wavelength=623.8 nm, x1 = 0.181	1.4208
307.48 K, Liquid mixture 1, Wavelength=623.8 nm, x1 = 0.097	1.4195
307.48 K, Liquid mixture 2, Wavelength=623.8 nm, x1 = 0.174	1.4207
307.49 K, Liquid mixture 1, Wavelength=623.8 nm, x1 = 0.104	1.4196
307.49 K, Liquid mixture 2, Wavelength=623.8 nm, x1 = 0.175	1.4207
307.5 K, Liquid mixture 1, Wavelength=623.8 nm, x1 = 0.104	1.4196
307.5 K, Liquid mixture 2, Wavelength=623.8 nm, x1 = 0.168	1.4206
307.51 K, Liquid mixture 1, Wavelength=623.8 nm, x1 = 0.104	1.4196
307.51 K, Liquid mixture 2, Wavelength=623.8 nm, x1 = 0.168	1.4206
307.52 K, Liquid mixture 1, Wavelength=623.8 nm, x1 = 0.104	1.4196
307.52 K, Liquid mixture 1, Wavelength=623.8 nm, x1 = 0.111	1.4197
307.52 K, Liquid mixture 2, Wavelength=623.8 nm, x1 = 0.155	1.4204
307.52 K, Liquid mixture 2, Wavelength=623.8 nm, x1 = 0.162	1.4205 and 1.4205
307.53 K, Liquid mixture 1, Wavelength=623.8 nm, x1 = 0.111	1.4197
307.53 K, Liquid mixture 1, Wavelength=623.8 nm, x1 = 0.117	1.4198 and 1.4198
307.53 K, Liquid mixture 2, Wavelength=623.8 nm, x1 = 0.149	1.4203
307.53 K, Liquid mixture 2, Wavelength=623.8 nm, x1 = 0.155	1.4204

85 kPa, Liquid, Wavelength=632.8 nm, Minimum Deviation
Details	refractive index
301.61 K, x1 = 0.7	1.4285
302.37 K, x1 = 0.8	1.429
302.37 K, x1 = 0.898	1.4299
303.54 K, x1 = 0.7	1.4279
303.94 K, x1 = 0.898	1.4295
303.98 K, x1 = 0.8	1.4286
305.36 K, x1 = 0.7	1.4274
305.43 K, x1 = 0.898	1.4291
305.58 K, x1 = 0.5	1.4254
305.64 K, x1 = 0.8	1.4282
306.75 K, x1 = 0.6	1.4262
307.04 K, x1 = 0.7	1.4269
307.1 K, x1 = 0.8	1.4278
307.12 K, x1 = 0.898	1.4286
307.21 K, x1 = 0.5	1.4249
307.74 K, x1 = 0.2	1.421
307.74 K, x1 = 0.3	1.4225
308 K, x1 = 0.399	1.4235
308.01 K, x1 = 0.1	1.4195
308.5 K, x1 = 0.7	1.4265
308.52 K, x1 = 0.6	1.4256
308.6 K, x1 = 0.5	1.4245
308.63 K, x1 = 0.8	1.4274
309.13 K, x1 = 0.3	1.422
309.27 K, x1 = 0.898	1.428
309.33 K, x1 = 0.2	1.4204
309.52 K, x1 = 0.1	1.4189
309.56 K, x1 = 0.399	1.423
310.16 K, x1 = 0.5	1.424
310.34 K, x1 = 0.7	1.426
310.34 K, x1 = 0.8	1.4269
310.75 K, x1 = 0.3	1.4214
310.81 K, x1 = 0.6	1.4249
310.88 K, x1 = 0.2	1.4199
311.04 K, x1 = 0.1	1.4183
311.13 K, x1 = 0.399	1.4225
311.28 K, x1 = 0.898	1.4274
311.69 K, x1 = 0.5	1.4235
312.29 K, x1 = 0.3	1.4209
312.54 K, x1 = 0.2	1.4193
312.58 K, x1 = 0.1	1.4178
312.73 K, x1 = 0.6	1.4243
313.03 K, x1 = 0.399	1.4219
313.17 K, x1 = 0.5	1.4231
313.86 K, x1 = 0.3	1.4204
314.02 K, x1 = 0.2	1.4188
314.06 K, x1 = 0.1	1.4172
314.31 K, x1 = 0.399	1.4214
314.64 K, x1 = 0.6	1.4237
315.45 K, x1 = 0.3	1.4198
315.63 K, x1 = 0.1	1.4166
315.63 K, x1 = 0.2	1.4183
316.32 K, x1 = 0.399	1.4208
316.32 K, x1 = 0.6	1.4232
